The species named for series [1] is Homo sapiens. As to the kind of experiment: Inhibition of aggregation of ADP-stimulated human platelets. Type of series: functional.
In series [2] the target is Integrin alpha-V/beta-3 (Homo sapiens, UniProt P05106+P06756). The series is described as follows: Inhibitory concentration against alphaV-beta3 integrin. Type of series: protein-complex assay.
Series [3] has as its target Integrin alpha-IIb/beta-3 (Homo sapiens, UniProt P05106+P08514). The series is described as follows: Inhibition of binding of fibrinogen to purified human GPIIb-IIIa in ELISA. The series is classed as protein-complex assay. For orientation: An ELISA detects its analyte on a solid surface through an enzyme-linked reagent.
Series [4] in a line: Oral bioavailability of compound in Sprague Dawley rats. The series is classed as ADME, organism-based. The settings on record: rat, in vivo.

A value given as a limit tells only on which side of the number the result lay.

Integrin alpha-V/beta-3, sequence (P05106 27-788 limits assumed): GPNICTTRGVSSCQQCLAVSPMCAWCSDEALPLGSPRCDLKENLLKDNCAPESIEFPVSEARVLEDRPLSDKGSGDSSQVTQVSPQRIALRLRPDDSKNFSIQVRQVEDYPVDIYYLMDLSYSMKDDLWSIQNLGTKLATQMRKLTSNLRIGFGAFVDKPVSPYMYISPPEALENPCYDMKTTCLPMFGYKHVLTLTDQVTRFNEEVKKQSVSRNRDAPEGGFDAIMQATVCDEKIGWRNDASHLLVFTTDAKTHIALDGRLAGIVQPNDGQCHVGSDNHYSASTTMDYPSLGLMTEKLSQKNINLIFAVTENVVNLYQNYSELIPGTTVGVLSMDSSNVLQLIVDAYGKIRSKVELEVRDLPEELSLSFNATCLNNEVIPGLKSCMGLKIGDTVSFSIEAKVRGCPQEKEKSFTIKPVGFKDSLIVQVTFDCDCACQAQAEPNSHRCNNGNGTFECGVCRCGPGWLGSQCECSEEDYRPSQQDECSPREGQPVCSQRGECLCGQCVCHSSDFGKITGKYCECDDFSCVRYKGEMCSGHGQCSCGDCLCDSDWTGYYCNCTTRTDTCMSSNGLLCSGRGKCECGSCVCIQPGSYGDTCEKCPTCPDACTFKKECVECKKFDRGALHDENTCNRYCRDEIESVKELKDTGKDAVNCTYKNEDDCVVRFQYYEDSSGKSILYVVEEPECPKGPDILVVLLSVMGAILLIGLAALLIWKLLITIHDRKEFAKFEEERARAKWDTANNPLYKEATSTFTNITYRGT
Integrin alpha-V/beta-3, sequence (P06756 31-889 limits assumed): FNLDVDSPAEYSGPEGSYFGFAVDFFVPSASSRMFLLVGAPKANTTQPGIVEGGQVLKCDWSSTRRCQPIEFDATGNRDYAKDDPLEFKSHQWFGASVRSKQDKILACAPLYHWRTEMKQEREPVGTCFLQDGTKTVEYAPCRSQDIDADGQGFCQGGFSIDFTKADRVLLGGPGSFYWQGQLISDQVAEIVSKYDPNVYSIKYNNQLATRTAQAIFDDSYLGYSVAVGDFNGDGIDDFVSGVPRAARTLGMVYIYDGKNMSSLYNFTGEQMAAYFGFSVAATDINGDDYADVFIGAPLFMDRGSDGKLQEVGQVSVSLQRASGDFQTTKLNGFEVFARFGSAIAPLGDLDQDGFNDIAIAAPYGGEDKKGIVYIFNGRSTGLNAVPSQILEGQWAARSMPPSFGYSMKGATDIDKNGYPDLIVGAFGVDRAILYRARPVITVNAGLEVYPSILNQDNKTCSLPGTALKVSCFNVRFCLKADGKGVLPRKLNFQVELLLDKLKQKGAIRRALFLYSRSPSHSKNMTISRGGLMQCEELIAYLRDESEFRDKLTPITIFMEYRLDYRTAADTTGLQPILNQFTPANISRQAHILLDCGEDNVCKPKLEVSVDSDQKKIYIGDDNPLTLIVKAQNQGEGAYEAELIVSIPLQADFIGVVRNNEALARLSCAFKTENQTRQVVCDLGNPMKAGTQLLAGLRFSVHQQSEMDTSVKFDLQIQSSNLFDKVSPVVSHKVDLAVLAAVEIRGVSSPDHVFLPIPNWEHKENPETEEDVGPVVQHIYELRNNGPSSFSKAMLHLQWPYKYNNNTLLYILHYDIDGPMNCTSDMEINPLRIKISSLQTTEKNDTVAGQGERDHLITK
Integrin alpha-V/beta-3, sequence (P06756 891-1048 limits assumed): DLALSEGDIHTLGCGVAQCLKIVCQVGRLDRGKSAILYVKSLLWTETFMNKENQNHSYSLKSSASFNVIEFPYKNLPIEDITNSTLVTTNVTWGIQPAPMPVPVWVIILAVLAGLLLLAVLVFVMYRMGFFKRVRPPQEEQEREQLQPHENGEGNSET
Integrin alpha-IIb/beta-3, sequence (P05106 27-788 limits assumed): as the sequence (P05106 27-788 limits assumed) above
Integrin alpha-IIb/beta-3, sequence (P08514 32-887 limits assumed): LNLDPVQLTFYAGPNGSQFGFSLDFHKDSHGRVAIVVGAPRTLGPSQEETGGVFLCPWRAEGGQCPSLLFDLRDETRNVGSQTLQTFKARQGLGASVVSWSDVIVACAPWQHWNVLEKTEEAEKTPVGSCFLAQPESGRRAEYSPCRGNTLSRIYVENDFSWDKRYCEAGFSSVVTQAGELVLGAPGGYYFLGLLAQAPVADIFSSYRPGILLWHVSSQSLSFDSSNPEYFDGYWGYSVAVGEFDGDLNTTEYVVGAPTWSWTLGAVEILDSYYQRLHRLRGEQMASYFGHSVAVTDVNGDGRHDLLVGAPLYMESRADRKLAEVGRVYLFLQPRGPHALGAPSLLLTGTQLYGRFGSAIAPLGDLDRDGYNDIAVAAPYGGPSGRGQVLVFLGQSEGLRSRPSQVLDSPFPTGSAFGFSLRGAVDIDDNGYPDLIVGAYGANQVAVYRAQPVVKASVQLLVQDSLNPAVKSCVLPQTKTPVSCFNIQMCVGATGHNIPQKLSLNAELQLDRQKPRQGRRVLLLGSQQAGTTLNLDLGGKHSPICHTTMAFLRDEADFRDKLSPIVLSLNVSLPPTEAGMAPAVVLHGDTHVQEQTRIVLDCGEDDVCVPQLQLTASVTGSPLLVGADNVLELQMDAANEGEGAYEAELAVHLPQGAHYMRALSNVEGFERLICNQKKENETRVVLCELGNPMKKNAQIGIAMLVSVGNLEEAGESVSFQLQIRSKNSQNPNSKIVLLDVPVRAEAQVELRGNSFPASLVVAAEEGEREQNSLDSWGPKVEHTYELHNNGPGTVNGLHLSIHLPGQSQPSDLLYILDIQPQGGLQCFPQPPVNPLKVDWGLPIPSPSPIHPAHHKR
Integrin alpha-IIb/beta-3, sequence (P08514 891-1039 limits assumed): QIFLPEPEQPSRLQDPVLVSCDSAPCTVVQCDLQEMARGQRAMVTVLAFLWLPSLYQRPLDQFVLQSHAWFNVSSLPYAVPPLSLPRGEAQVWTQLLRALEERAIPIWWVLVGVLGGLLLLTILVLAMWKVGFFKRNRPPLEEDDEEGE

As to `Cc1noc(C)c1S(=O)(=O)N[C@@H](CNC(=O)N1CCC2(CC1)CCN(c1ccncc1)CC2)C(=O)O`, the figures for the half-inhibitory concentration (IC50) in series [1] and in series [2] were 0.039 µM and more than 100 µM, respectively.
`Cc1ccc(S(=O)(=O)N[C@@H](CCC(=O)N2CCC3(CC2)CCN(c2ccncc2)CC3)C(=O)O)cc1`: the values for the IC50 in series [1] and in series [2] were 0.078 µM and more than 100 µM, respectively.
The corresponding values for `O=C(O)CCCC(=O)N1CCC2(CC1)CCN(c1ccncc1)CC2` are 5.08 µM and more than 100 µM.
On to `O=C(O)COC1CCN(C(=O)N2CCC3(CC2)CCN(c2ccncc2)CC3)CC1`, for which the half-maximal inhibitory concentration (IC50) – broadly, the concentration at which inhibition is half-maximal – in series [1] is 2.65 µM; in series [2] it was more than 100 µM; in series [3], 0.21 µM.
With `CCCCS(=O)(=O)N[C@@H](CCC(=O)N1CCC2(CC1)CCN(c1ccncc1)CC2)C(=O)O`, the IC50 is 0.768 µM in series [1], more than 100 µM in series [2] and 0.023 µM in series [3].
With `Cc1noc(C)c1S(=O)(=O)N[C@@H](CCC(=O)N1CCC2(CC1)CCN(c1ccncc1)CC2)C(=O)O`, the bioavailability – broadly, the share of a dose that reaches the circulation, judged against a reference dose that is usually intravenous – in series [4] turned out to be 7.3%. Also, the IC50 in series [1] is 0.021 µM; in series [2], more than 100 µM.
Consider `N=C(N)c1ccc(C(=O)N2CCC3(CCN(C(=O)CCCC(=O)O)CC3)CC2)cc1`, for which the results for the IC50 in series [1] and in series [2] were 10.3 µM and more than 100 µM, respectively.
With `O=C(O)CCCCC(=O)N1CCC2(CC1)CCN(c1ccncc1)CC2`, the values for the half-maximal inhibitory concentration (IC50) in series [1] and in series [2] were 4.54 µM and more than 100 µM, respectively.
In the case of `CCCCOC(=O)N[C@@H](CCC(=O)N1CCC2(CC1)CCN(c1ccncc1)CC2)C(=O)O`, the IC50 in series [1] is 0.722 µM; in series [2], more than 100 µM; in series [3] it was 0.004 µM.
The corresponding values for `N=C(N)c1ccc(C(=O)N2CCC3(CCN(C(=O)CC(=O)O)CC3)CC2)cc1` are 9.3 µM, more than 100 µM and 9.7 µM.
`O=C(O)CCCCCC(=O)N1CCC2(CC1)CCN(c1ccncc1)CC2`: the IC50 is 4.55 µM in series [1], more than 100 µM in series [2] and 0.27 µM in series [3].
For the molecule `N=C(N)c1ccc(C(=O)N2CCC3(CCN(C(=O)CCC(=O)O)CC3)CC2)cc1`, the half-maximal inhibitory concentration (IC50) in series [1] was 13.8 µM; in series [2], more than 100 µM.
As to `O=C(O)CC(=O)N1CCC(C(=O)N2CCC3(CC2)CCN(c2ccncc2)CC3)CC1`, the results for the IC50 in series [1], in series [2] and in series [3] were 1.17 µM, more than 100 µM and 0.043 µM, respectively.
On the same counts, the results for `N=C(N)c1ccc(N2CCC3(CCN(CCC(=O)O)CC3)CC2)cc1` are 1.15 µM, more than 100 µM and 0.16 µM.
Regarding `N=C(N)c1ccc(C(=O)N2CCC3(CCN(C(=O)CCCCC(=O)O)CC3)CC2)cc1`, the concentration for half-maximal inhibition (IC50) is 18.8 µM in series [1], more than 100 µM in series [2] and more than 100 µM in series [3].
Regarding `O=C(O)CCCCCCC(=O)N1CCC2(CC1)CCN(c1ccncc1)CC2`, the half-inhibitory concentration (IC50) in series [1] was 17.8 µM; in series [2], more than 100 µM.
With `O=C(N[C@@H](CCC(=O)N1CCC2(CC1)CCN(c1ccncc1)CC2)C(=O)O)OCc1ccccc1`, the figures for the IC50 in series [1] and in series [2] were 4.58 µM and more than 100 µM, respectively.

The record behind these values is ChEMBL document CHEMBL1134714, “Spirocyclic nonpeptide glycoprotein IIb-IIIa antagonists. Part 1: design of potent and specific 3,9-diazaspiro[5.5]undecanes” (Bioorg Med Chem Lett, 2001).
